Test results taken from patent publication US12065442B2, “Tropomyosin receptor kinase (TRK) degradation compounds and methods of use” (Cullgen (Shanghai), Inc., priority 2018, dated 2024).
Entries after “also recorded” stand apart in the source; their conditions may differ.

Tests used:
[1] = system: KM12 cells; test: Cell viability assay (CellTiter-Glo) in KM12 cells; assay type: cell-based; conditions: Homo sapiens, 72 h; Table 3; KM12 cell viability, CellTiter-Glo, 3 days; read-out: IC50
[2] = system: KM12 subcutaneous xenograft tumors; test: KM12 subcutaneous xenograft tumor growth study; assay type: in vivo, Athymic nude mice; conditions: 10-20 mg/kg qd or bid via oral gavage (FIG. 15A)
Experimental: (§1) Athymic nude mice bearing KM12 subcutaneous xenograft tumors at the right flank were intraperitoneally treated with vehicle or 25 mg/kg CPD-060 once per day (qd), twice per day (bid), or once every two days (q2d). Tumor volumes were assessed every two days and expressed as length×width×width/2. Body weights of experimental mice were also measured to assess the toxicity of compounds.
(§2) Athymic nude mice bearing KM12 subcutaneous xenograft tumors at the right flank were treated with vehicle, 10-20 mg/kg TR-181 or TR-198 once per day (qd), or twice per day (bid) via oral gavage. Tumor volumes were assessed every two days and expressed as length×width×width/2. Body weights of experimental mice were also measured to assess the toxicity of compounds.
(§3) All animal experiments were performed under protocols approved by the Institutional Animal Care and Use Committee (IACUC) of Cullgen. Athymic nude mice (male, 5-weeks old) received 5 million KM12 cells subcutaneously inoculated at the right flank site. Ten days following inoculation, tumors were approximately 500 mm3 in size. Tumor-bearing mice were treated intraperitoneally with vehicle or bivalent compounds at indicated doses. Tumor sizes and body weight of mice were measured every 2 days. In addition, immunoblotting assays were employed to assess the levels of TRKA fusion proteins in xenograft tumors around 500 mm^3 in size following drug administration. At indicated hours after drug administration, selected mice were sacrificed, tumors were resected. Small chunks of tumors were homogenized for immunoblotting of TPM3-TPKA and other proteins as indicated.

[3] = Body weight of xenograft-bearing mice (toxicity); assay type: in vivo, Athymic nude mice; conditions: 10-20 mg/kg qd or bid via oral gavage (FIG. 15B)
Experimental: as §1, §2, §3

[4] = system: monoiodoacetate-induced osteoarthritis; test: Monoiodoacetate-induced osteoarthritis pain model in rats; assay type: in vivo, Sprague Dawley rats; conditions: 20 mg/kg i.p., single dose, 6 hours following treatment (FIG. 16A)
[5] = system: monoiodoacetate-induced osteoarthritis; test: Monoiodoacetate-induced osteoarthritis pain model in guinea pigs; assay type: in vivo; conditions: 20 mg/kg i.p., single dose, 6 hours following treatment (FIG. 16B)
[6] = molecular target: TPM3-TRKA fusion protein (Homo sapiens, UniProt P04629+P06753+Q96SW2); test: Immunoblotting of TPM3-TRKA in KM12 subcutaneous xenograft tumors; assay type: in vivo, Athymic nude mice; design: The resulted chimeric proteins always retain the kinase domain of TRK proteins; TPM3 (N-terminal fusion partner, natural gene fusion); from tissue; host or cells: KM12 subcutaneous xenograft tumors in athymic nude mice; conditions: intraperitoneal or oral administration, eight hours after administration (FIG. 10)
Sequence of TPM3-TRKA fusion protein (P06753+P04629 fused): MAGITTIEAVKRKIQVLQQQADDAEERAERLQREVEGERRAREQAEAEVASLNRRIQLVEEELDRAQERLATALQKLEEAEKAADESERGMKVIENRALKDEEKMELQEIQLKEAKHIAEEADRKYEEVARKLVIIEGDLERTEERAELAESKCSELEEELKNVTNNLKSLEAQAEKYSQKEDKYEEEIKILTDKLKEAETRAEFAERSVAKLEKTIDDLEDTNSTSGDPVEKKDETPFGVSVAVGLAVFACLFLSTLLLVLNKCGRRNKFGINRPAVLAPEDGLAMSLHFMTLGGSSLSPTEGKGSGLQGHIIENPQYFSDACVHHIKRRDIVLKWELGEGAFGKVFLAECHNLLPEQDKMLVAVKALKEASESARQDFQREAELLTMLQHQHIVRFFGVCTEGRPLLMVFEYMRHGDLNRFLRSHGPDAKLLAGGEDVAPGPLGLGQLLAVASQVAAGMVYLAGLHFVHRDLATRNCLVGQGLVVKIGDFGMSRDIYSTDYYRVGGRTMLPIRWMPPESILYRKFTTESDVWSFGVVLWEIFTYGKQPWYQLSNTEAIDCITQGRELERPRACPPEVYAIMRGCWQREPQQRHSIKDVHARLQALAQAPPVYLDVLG
Sequence of TPM3-TRKA fusion protein (Q96SW2 whole entry, the tested form may be a part): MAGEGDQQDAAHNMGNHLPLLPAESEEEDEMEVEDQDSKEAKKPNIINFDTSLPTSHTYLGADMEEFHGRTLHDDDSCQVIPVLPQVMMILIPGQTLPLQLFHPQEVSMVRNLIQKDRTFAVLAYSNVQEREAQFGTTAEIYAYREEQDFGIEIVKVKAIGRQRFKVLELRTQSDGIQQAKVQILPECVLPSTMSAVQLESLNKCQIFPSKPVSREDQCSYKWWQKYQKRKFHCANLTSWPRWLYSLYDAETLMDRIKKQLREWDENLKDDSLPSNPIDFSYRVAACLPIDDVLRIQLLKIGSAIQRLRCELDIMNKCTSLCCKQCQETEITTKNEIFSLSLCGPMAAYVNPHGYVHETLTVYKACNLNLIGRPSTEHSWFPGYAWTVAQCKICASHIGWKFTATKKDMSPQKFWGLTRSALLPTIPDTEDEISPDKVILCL
Sequence of TPM3-TRKA fusion protein (Q16531 whole entry partner, the tested form may be a part): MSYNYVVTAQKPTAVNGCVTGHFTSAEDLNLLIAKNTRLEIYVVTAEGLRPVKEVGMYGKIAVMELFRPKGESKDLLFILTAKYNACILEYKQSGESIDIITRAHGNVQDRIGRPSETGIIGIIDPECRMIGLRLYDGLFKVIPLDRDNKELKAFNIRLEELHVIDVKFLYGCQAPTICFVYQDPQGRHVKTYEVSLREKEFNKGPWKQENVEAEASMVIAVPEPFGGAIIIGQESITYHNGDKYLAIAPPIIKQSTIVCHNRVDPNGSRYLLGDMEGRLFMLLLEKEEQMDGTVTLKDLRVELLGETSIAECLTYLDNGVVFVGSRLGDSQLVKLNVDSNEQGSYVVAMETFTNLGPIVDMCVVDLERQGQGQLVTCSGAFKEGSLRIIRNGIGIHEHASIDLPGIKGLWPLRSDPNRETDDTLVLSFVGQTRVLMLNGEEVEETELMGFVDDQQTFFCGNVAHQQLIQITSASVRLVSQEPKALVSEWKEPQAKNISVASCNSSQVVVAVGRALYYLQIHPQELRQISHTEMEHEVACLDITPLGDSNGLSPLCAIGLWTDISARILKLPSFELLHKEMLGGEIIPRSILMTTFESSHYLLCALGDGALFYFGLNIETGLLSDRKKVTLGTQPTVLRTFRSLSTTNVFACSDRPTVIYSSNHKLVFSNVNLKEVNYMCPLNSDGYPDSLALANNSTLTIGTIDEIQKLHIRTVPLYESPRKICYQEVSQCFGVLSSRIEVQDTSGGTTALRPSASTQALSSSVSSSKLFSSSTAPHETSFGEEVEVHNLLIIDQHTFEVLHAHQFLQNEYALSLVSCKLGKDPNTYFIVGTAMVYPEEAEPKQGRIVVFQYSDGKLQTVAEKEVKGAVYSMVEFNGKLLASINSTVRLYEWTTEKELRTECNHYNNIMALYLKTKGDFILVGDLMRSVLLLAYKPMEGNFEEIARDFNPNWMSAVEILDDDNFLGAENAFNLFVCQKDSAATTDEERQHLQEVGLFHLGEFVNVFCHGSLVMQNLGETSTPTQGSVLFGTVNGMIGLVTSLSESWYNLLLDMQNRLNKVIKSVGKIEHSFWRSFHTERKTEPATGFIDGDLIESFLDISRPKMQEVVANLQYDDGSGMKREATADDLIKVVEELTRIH
Experimental: In addition to cultured cells, athymic nude mice bearing KM12 subcutaneous xenograft tumors at the right flank were intraperitoneally treated with 10, 20, or 50 mg/kg CPD-053, CPD-027, or CPD-060. Four hours after drug administration, animals were sacrificed for immunoblotting of TPM3-TPKA in homogenized xenograft tumor masses. The label “a” or “b” represents two different samples of the same xenograft tumor.
Athymic nude mice bearing KM12 subcutaneous xenograft tumors at the right flank were intraperitoneally treated with 10, 20, or 50 mg/kg CPD-053, CPD-027, or CPD-060, as indicated in FIG. 3. Four hours after drug administration, animals were sacrificed for immunoblotting of TPM3-TPKA in homogenized xenograft tumor chunks. The label “a” or “b” represents two different chunks of the same xenograft tumor.
Athymic nude mice bearing KM12 subcutaneous xenograft tumors at the right flank were intraperitoneally or orally treated with bivalent compounds at indicated dose. Eight hours after drug administration, animals were sacrificed for immunoblotting of TPM3-TPKA in homogenized xenograft tumor samples.
Cultured cells were washed with cold PBS once and lysed in cold RIPA buffer supplemented with protease inhibitors and phosphatase inhibitors (Beyotime Biotechnology). The solutions were then incubated at 4° C. for 30 minutes with gentle agitation to fully lyse cells. For tumor tissues, tumors were cut into small pieces, milled with cold RIPA buffer using a mechanical homogenizer and lysed for 1 hour at 4° C. Cell lysates were centrifuged at 13,000 rpm for 10 minutes at 4° C. and pellets were discarded. Total protein concentrations in the lysates were determined by BCA assays (Beyotime Biotechnology). Cell lysates were mixed with Laemmli loading buffer to 1× and heated at 99° C. for 5 min. Proteins were resolved on SDS-PAGE and visualized by chemiluminescence. Images were taken by a ChemiDoc MP Imaging system (Bio-Rad). Protein bands were quantitated using the software provided by Bio-Rad.
as §3

SMILES: O=C1CCC(N2C(=O)c3ccc(NCCN4CCN(c5cccc(-c6cnc7ccc(N8CCC[C@@H]8c8cccc(F)c8)nn67)n5)CC4)cc3C2=O)C(=O)N1 (stereo partly drawn) [TR-181, 2-(2,6-dioxopiperidin-3-yl)-5-((2-(4-(6-(6-((R)-2-(3-fluorophenyl)pyrrolidin-1-yl)imidazo[1,2-b]pyridazin-3-yl)pyridin-2-yl)piperazin-1-yl)ethyl)amino)isoindoline-1,3-dione]
- IC50 [1]: 3.4 nM
- growth of KM12 subcutaneous xenograft tumors [2]: significant in vivo anti-tumor activity; also recorded: significantly repressed the growth
- body weight [3]: without inducing substantial weight losses
- analgesic activity (percentage of weight born on the injured limb) [4]: significant analgesic activity
- analgesic activity (percentage of weight born on the injured limb) [5]: significant analgesic activity
- TPM3-TRKA degradation in KM12 subcutaneous tumors [6]: exhibited the activities to induce TPM3-TRKA degradation
